This data set is described as follows: Evaluation of maximum absorption wavelength (λmax). Format: physicochemical. The protocol: A 10 mM MOPS aqueous solution is added so that the final concentrations of the respective formazan compounds are 50 to […] to prepare 100 μL of each sample. Separately, a 1M nickel ion aqueous solution is prepared. To 100 μL of the sample, 10 μL of the 1M nickel ion aqueous solution is added, and the mixture is rapidly stirred to prepare a mixed solution. The spectrum of the mixed solution is measured with a spectrophotometer (measurement cell length: 10 mm) (n=1). Based on each spectrum, the maximum absorption wavelength (λmax) (nm) of each compound in formazan is determined.
Diethyl ether was added to the reaction solution obtained in 3. above to precipitate the tetrazolium compound 1. The precipitate was centrifuged, and the supernatant was removed, followed by washing with diethyl ether. The obtained precipitate was dried in a draft to obtain tetrazolium compound 1 (120 mg, yield: 11.8% by mass). The maximum absorption wavelength (λmax) of the tetrazolium compound 1 thus obtained was measured and found to be 630 nm.

SMILES strings stand for the structures. Counter-ions that a name gives are not always drawn.

For the compound `COc1ccc2nc(-n3nc(-c4ccc(S(=O)(=O)O)cc4S(=O)(=O)[O-])n[n+]3-c3ccc(OC)c(S(=O)(=O)O)c3)sc2c1` [tetrazolium compound 1, 2-(6-methoxybenzothiazolyl)-3-(3-sulfo-4-methoxy-phenyl)-5-(2,4-disulfophenyl)-2H-tetrazolium salt], the “maximum absorption wavelength (λmax)” value is reported as 630 nm.

Values taken from patent US11815448B2, “Method, reagent, and chip for measuring analyte concentration in specimen” (TERUMO KABUSHIKI KAISHA, priority 2018, dated 2023).
